Patent US11917959B2, “Multi-ear system to enhance monocot plant yield” (Monsanto Technology LLC, priority 2015, dated 2024)

Legend:
Assay type in all cases: in vivo
[1] = tested on: haploid maize lines (Germplasm A, Germplasm B); test: Co-dominant ear induction by PBZ soil drench in colchicine-doubled haploid maize (Example 1)
Excerpt: V1-V3 seedlings of two unique F1 hybrid-derived haploid maize lines, derived from: female heterotic group (Germplasm A) or male heterotic group (Germplasm B), were subjected to a bulk colchicine-based chromosome doubling treatment by removing the seedlings from soil or growth media at the V1-V3 growth stage and aligning their stems and wrapping them together along with several wooden rods into bundle a held together by a strip of aluminum foil (approximate foil strip dimensions were 6 in×18 in). The bundled plants were submerged in plant treatment solution comprising 1250 ppm of colchicine in a centrifuge container and then the entire sample was centrifuged at 50 g for 3 min while the shoot apical meristems (SAMs) remained submerged in the plant treatment agent solution.
Following the first centrifugation, the plant treatment solution was decanted and the seedlings subjected to an addition centrifugation at 335 g for 3 min. During the second centrifugation, the rod-wrap bundle supported the seedlings and prevented the SAMs from contacting the reserve treatment agent that was not absorbed by the plant during application of the centrifugal force.
Following the second centrifugation, the plants were removed from the centrifugation container and the rod-wrap bundle and rinsed with water to remove any remaining colchicine solution, and then recovered and tended in a light, humidity, and temperature-controlled greenhouse for several days before being transplanted to a nursery greenhouse. These centrifuge-based treatment methods are described in more detail in International application number PCT/US2015/028955, which is incorporated by reference herein in its entirety, however, standard doubling treatments can also be applied to any of the haploid doubling steps referred to herein.
Following colchicine doubling treatment, 15-20 plants from each germplasm were planted in pots at two different densities; either as single plants per pot (singles), or as two plants per pot (pairs).
Next, each plant received one of two different doses of PBZ, either 50 mL (low dose) or 60 mL (high dose) of a 2.5% PBZ solution (v/v; 0.4% of active ingredient) in water. These two different doses were applied by soil drench at either the V7 or V8 growth stage, which occurred a total of 23 or 26 days after the seedlings had been subjected to chromosome doubling treatment, respectively. A control group of plants received no treatment solution but were otherwise treated exactly as the experimental groups planted as singles. When pollen shed began at the tassels, the average number of silk-producing ears (i.e. co-dominant ears) were counted for each dosage, germplasm, and treatment time and the results summarized in Table. 1.

[2] = tested on: maize inbred lines Germplasm A and LH244; test: Co-dominant ear induction in diploid maize inbreds (Example 5); conditions: for Ave. Ears Per Plant / Ave. Total Kernels Per Plant: Treated
Experimental: Seeds of maize inbred lines Germplasm A and LH244 were planted in soil, germinated, and then transplanted to 10-inch pots after approximately one week, one seedling per pot. The plants were subjected to a co-dominant ear induction treatment at the V8 stage comprising drenching the soil surrounding the roots of each plant with 50 mL of a 2.5% PBZ solution (v/v; 0.4% of active ingredient). The plants were tended in a greenhouse until sexual maturity, then they were self-pollinated. When seed set had completed, the number of co-dominant ears, and the total number of kernels, produced by each plant were counted. Control plants for each germplasm were processed in the same way as the treated groups, except that the control plants were not subjected to the co-dominant ear induction treatment.

haploid mother plant = test: Tiller induction in doubled haploid maize (Example 7)
Experimental: A haploid mother plant will be subjected to doubling treatment and thereafter planted in a pot, the soil surrounding the roots drenched with 100 mL of 2.5% of paclobutrazol, and then tended standard maize greenhouse growing conditions for several days. […] One of the resulting daughter tiller plants can be separated from the mother plant, transplanted into a separate pot, and grown via standard greenhouse management procedures to eventually recover a daughter plant with normal haploid morphology.

[3] = tested on: diploid maize plants of a common inbred line; test: Tiller induction in diploid maize (Example 6)
Experimental: Diploid maize plants of a common inbred line were subjected to a tiller induction treatment comprising drenching the soil surrounding the roots with 100 mL of a 2.5% PBZ solution (v/v; 0.4% of active ingredient) approximately one week after germination and then allowed to grow to sexual maturity in 10-inch pots a greenhouse. A control group of plants were grown under identical circumstances except that they were not subjected to the tiller induction treatment.
Three treatment groups were then formed from the tillers: tillers of the “Co-hab” treatment were allowed to continue growing in the same pot with the mother plant; those of the “-Mother” treatment also remained in the same pot, but the mother plant was removed from the pot; and those of the “Transplanted” treatment group were transplanted from the pot containing the mother plant into separate 10-inch pots, one plant per pot. Any naturally-occurring tillers produced by the control group were allowed to grow in the same pot as the mother plant, similar to the co-hab treatment. All plants were allowed to grow to sexual maturity and self-pollinated when silks and tassels formed. When seed set was complete, the average total number of seeds produced by all plants deriving from the same mother plant seed were counted and plotted in FIG. 3.

[4] = Germplasm A, 50 mL 2.5% PBZ at V8

CC(C)(C)[C@@H](O)[C@@H](Cc1ccc(Cl)cc1)n1cncn1 (relative stereo) [PBZ, (±)-(R*, R*)-beta-((4-chlorophenyl)methyl)-alpha-(1,1,-dimethylethyl)-1H-1,2,4,-triazole-1-ethanol]
number of co-dominant ears formed per plant ([1]; V7, Germplasm A, pairs, high dose (60 mL 2.5% PBZ)): 3.4
number of co-dominant ears formed per plant ([1]; V7, Germplasm A, pairs, low dose (50 mL 2.5% PBZ)): 3
number of co-dominant ears formed per plant ([1]; V7, Germplasm A, singles, high dose (60 mL 2.5% PBZ)): 3.9
number of co-dominant ears formed per plant ([1]; V7, Germplasm A, singles, low dose (50 mL 2.5% PBZ)): 3.4
number of co-dominant ears formed per plant ([1]; V7, Germplasm B, pairs, high dose (60 mL 2.5% PBZ)): 1.5
number of co-dominant ears formed per plant ([1]; V7, Germplasm B, pairs, low dose (50 mL 2.5% PBZ)): 1.5
number of co-dominant ears formed per plant ([1]; V7, Germplasm B, singles, high dose (60 mL 2.5% PBZ)): 3.3
number of co-dominant ears formed per plant ([1]; V7, Germplasm B, singles, low dose (50 mL 2.5% PBZ)): 2.7
number of co-dominant ears formed per plant ([1]; V8, Germplasm A, pairs, high dose (60 mL 2.5% PBZ)): 2.2
number of co-dominant ears formed per plant ([1]; V8, Germplasm A, pairs, low dose (50 mL 2.5% PBZ)): 2.3
number of co-dominant ears formed per plant ([1]; V8, Germplasm A, singles, high dose (60 mL 2.5% PBZ)): 3.5
number of co-dominant ears formed per plant ([1]; V8, Germplasm A, singles, low dose (50 mL 2.5% PBZ)): 2.3
number of co-dominant ears formed per plant ([1]; V8, Germplasm B, pairs, high dose (60 mL 2.5% PBZ)): 1.5
number of co-dominant ears formed per plant ([1]; V8, Germplasm B, pairs, low dose (50 mL 2.5% PBZ)): 1.5
number of co-dominant ears formed per plant ([1]; V8, Germplasm B, singles, high dose (60 mL 2.5% PBZ)): 2.2
number of co-dominant ears formed per plant ([1]; V8, Germplasm B, singles, low dose (50 mL 2.5% PBZ)): 2.3
average EP (ear per plant), high dosage greater than low dosage by ([1]; all plants): 0.31
average EP, high-dose higher than low-dose by ([1]; singles only): 0.55
minimum increase over control plants ([1]; singles, low dose): ≥ 1.2 EP
Ave. Ears Per Plant [2, 4]: 8
Ave. Total Kernels Per Plant [2, 4]: 1677
Ave. Ears Per Plant ([2]; LH244, 50 mL 2.5% PBZ at V8): 5.1
Ave. Total Kernels Per Plant ([2]; LH244, 50 mL 2.5% PBZ at V8): 1126
average total kernels per plant and average ears per plant, treated vs control ([2]; both germplasms): more than doubling
DH1 seeds yielded by transplanted daughter tiller plant when selfed (haploid mother plant; 100 mL of 2.5% paclobutrazol): several dozen
effect on mother plant (haploid mother plant; 100 mL of 2.5% paclobutrazol soil drench after doubling treatment): shortened internodes and increased tiller production
effect on mother plants ([3]; 100 mL 2.5% PBZ soil drench): shortened internodes, and induced the mother plants to produce tillers
number of seeds vs control group ([3]; transplanted treatment group, 100 mL 2.5% PBZ one week after germination): more than twice
